Here are results for two compounds from patent publication US20100113590A1, “ADAM INHIBITOR” (Shiseido Company, Ltd., priority 2007, published 2010).

This experiment relates to ADAM. In words: Inhibition of PMA-induced TNF-α release from U937 cells (index of ADAM inhibition), hTNF-α ELISA. In kind it is cell-based, human. The conditions noted are these: for Inhibition rate (%): U937 cells, 30 min pretreatment, 10 nM PMA for 6 hours, released hTNF-α by ELISA; for suppressing effect on HB-EGF release: statement in words summarising the screening, suggests inhibition of ADAM activity. How it is done:
For the ADAM inhibiting effect, the TNF-α which is cut out to be released from the membrane of the U937 cell derived from the human lymphoma through the action of ADAM was used as an index, and the inhibiting effect on the TNF-α release by the agents was assessed. A new ADAM inhibitor was explored by screening different compounds according to the present method.
The U937 cells derived from the human lymphoma were seeded to the 48-well plate adjusting the number of the cells to 1×10^5 cells/0.25 ml and cultured at 37° C. overnight. The medium which contained 5 μg/ml or 30 μg/ml of an ascorbic acid derivative was added and incubated at 37° C. for 30 min. to be pretreated. 10 nM PMA (phorbol ester: 12-O-tetradecanoylphorbol-acetate; Sigma P8139) was then added and cultured at 37° C. for 6 hours. After completion of the treatment, the supernatant of the culture was collected, centrifuged and the cell-free supernatant was cryopreserved at −20° C. The assay of the released hTNF-α was performed using the hTNF-α Duo-Set ELISA kit from R & D Ltd. Each supernatant of the culture was diluted 5-folds with the medium, then […] each was added to the 96-well plate and measured according to the protocol of R & D Ltd. The absorbance at 450-570 nm of each well was measured by the measurement kit and concentrations of the samples were obtained from the standard curve. The inhibition rates were calculated according to the following equation wherein A0 is the absorbance of 0% inhibiting control (the medium containing only PMA), A100 is the absorbance of 100% inhibiting control (only the medium) and AS is the absorbance of the sample.
The inhibition rate (%)=(A0−AS)/(A0−A100)×100

As to `CCCCCCCCCCCCOC1=C(O)[C@@H]([C@@H](O)CO)OC1=O` [2-O-dodecyl ascorbic acid], the “suppressing effect on HB-EGF release” value was “high suppressing effect”. Besides, the “Inhibition rate (%)” value (5 μg/mL) amounted to 18.25%. The “Inhibition rate (%)” value (30 μg/mL) was found to be 60.07%.

Consider `CCCCCCCCCCCCCCCCCCOC1=C(O)[C@@H]([C@@H](O)CO)OC1=O` [2-O-octadecyl ascorbic acid], for which the “suppressing effect on HB-EGF release” value was “high suppressing effect”. The “Inhibition rate (%)” value (5 μg/mL) is reported as 15.19%. For the same compound, the “Inhibition rate (%)” value (30 μg/mL) is given as 82.70%.
